Experimental data as given in US20240246960A1 (adMare Therapeutics Society, priority 2021, published 2024).
Where two headings read alike, the source gives them in different places.

Columns and labels:
[1] = biological target: T1, pDNA-PK ser2056 induction in HCT116 spheroids (Homo sapiens, UniProt P78527); test: Multicellular tumour spheroid + radiation, pDNA-PK inhibition, HCT116; format: cell-based; settings: 20 Gy
T1 construct: endogenous in cells; host or cells: HCT116 multicellular tumour spheroids
Method in brief: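 HCT116 spheroids (~0.5 mm) in MEM/10% FBS/10 mM glucose, 20% O2, 37 °C, pre-incubated 1 h with compound (10 or 5 μM down to 3.5 nM), irradiated 20 Gy, incubated 2 h more. Cryosections immunostained for pDNA-PK ser2056; EC50 (μM) for 50% reduction of radiation-induced pDNA-PK.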

[2] = biological target: T2, DNA-PK phosphorylation at Serine 2056 (Homo sapiens, UniProt P78527); test: Cellular Assay for Inhibition of DNA-PK Phosphorylation at Serine 2056 (FaDu cells, neocarzinostatin, sandwich ELISA); format: cell-based; settings: Table 1
T2 construct: host or cells: FaDu
Method in brief: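 FaDu cells were pretreated with compound (0.3% DMSO) for 1 h, then exposed to neocarzinostatin at 1 μg/mL final for 2 h to induce DSBs. Protein-normalized lysates were assayed by MSD sandwich ELISA for total and pSer2056 DNA-PK. IC50 came from variable-slope fits of % inhibition relative to DMSO and NCS controls.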

[3] = Example 7, spheroid, cell line HCT115 [sic], 20% O2, read-out: EC50 (pDNA-PK inhibition, immunohistochemical endpoint)
[4] = Example 8, spheroid, read-out: Cell line: HCT116 Immunohistochemical endpoint pDNA-PK inhibition EC50
[5] = Example 9 Study 2, 20% O2, read-out: Spheroid Cell line: HCT116 Immunohistochemical endpoint pDNA-PK inhibition EC50

Row | EC50 [1, 3] | EC50 [1, 4] | EC50 [1, 5] | IC50 [2] | Compound
1 | 1000 to 10000 nM | 1000 to 10000 nM | 1000 to 10000 nM | < 100 nM | Fc1cn([C@H]2CC[C@@H](Oc3nc(N4CCOCC4)cc4ncccc34)CC2)cn1 [Compound 17a, 4-(5-(((1s,4s)-4-(4-fluoro-1H-imidazol-1-yl)cyclohexyl)oxy)-1,6-naphthyridin-7-yl)morpholine]
2 | 1000 to 10000 nM | 1000 to 10000 nM | 1000 to 10000 nM | 100 to 1000 nM | Cc1nc(C(F)(F)F)cn1[C@H]1CC[C@@H](Oc2nc(N3CCOCC3)cc3ncccc23)CC1 [Compound 17i, 4-(5-(((1s,4s)-4-(2-methyl-4-(trifluoromethyl)-1H-imidazol-1-yl)cyclohexyl)oxy)-1,6-naphthyridin-7-yl)morpholine]
3 | 500 to 1000 nM | 500 to 1000 nM | 500 to 1000 nM | 100 to 1000 nM | FC(F)(F)c1cncn1[C@H]1CC[C@@H](Oc2nc(N3CCOCC3)cc3ncccc23)CC1 [Compound 17j, 4-(5-(((1s,4s)-4-(5-(trifluoromethyl)-1H-imidazol-1-yl)cyclohexyl)oxy)-1,6-naphthyridin-7-yl)morpholine]
4 | 500 to 1000 nM | 500 to 1000 nM | 500 to 1000 nM | < 100 nM | Oc1cnc2cc(N3CCOCC3)nc(O[C@H]3CC[C@@H](Nc4ncccn4)CC3)c2c1 [Compound 19a, 7-Morpholino-5-(((1s,4s)-4-(pyrimidin-2-ylamino)cyclohexyl)oxy)-1,6-naphthyridin-3-ol]
5 | 10 to 500 nM | 10 to 500 nM | 10 to 500 nM | 100 to 1000 nM | CCOCCOc1cnc(N[C@H]2CC[C@@H](Oc3nc(N4CCOCC4)cc4ncc(O)cc34)CC2)nc1 [Compound 19b, 5-(((1s,4s)-4-((5-(2-Ethoxyethoxy)pyrimidin-2-yl)amino)cyclohexyl)oxy)-7-morpholino-1,6-naphthyridin-3-ol]
6 | 1000 to 10000 nM | 1000 to 10000 nM | 1000 to 10000 nM | < 100 nM | COc1cnc(N[C@H]2CC[C@@H](Oc3nc(N4CCOCC4)cc4ncc(O)cc34)CC2)nc1 [Compound 19c, 5-(((1s,4s)-4-((5-Methoxypyrimidin-2-yl)amino)cyclohexyl)oxy)-7-morpholino-1,6-naphthyridin-3-ol]
7 | 500 to 1000 nM | 500 to 1000 nM | 500 to 1000 nM | 100 to 1000 nM | c1cnc(N[C@H]2CC[C@@H](Oc3nc(N4CCOCC4)cc4ncccc34)CC2)nc1 [Compound 20a, N-((1s,4s)-4-((7-Morpholino-1,6-naphthyridin-5-yl)oxy)cyclohexyl)pyrimidin-2-amine]
8 | 10000 to 100000 nM | – | 10000 to 100000 nM | 100 to 1000 nM | FC(F)c1ccc2c(O[C@H]3CC[C@@H](Nc4ncccn4)CC3)nc(N3CCOCC3)cc2n1 [Compound 21, N-((1s,4s)-4-((2-(Difluoromethyl)-7-morpholino-1,6-naphthyridin-5-yl)oxy)cyclohexyl)pyrimidin-2-amine]
9 | 500 to 1000 nM | – | 500 to 1000 nM | < 100 nM | FC(F)c1ccnc2cc(N3CCOCC3)nc(O[C@H]3CC[C@@H](Nc4ncccn4)CC3)c12 [Compound 22, N-((1s,4s)-4-((4-(Difluoromethyl)-7-morpholino-1,6-naphthyridin-5-yl)oxy)cyclohexyl)pyrimidin-2-amine]
10 | 1000 to 10000 nM | – | 1000 to 10000 nM | < 100 nM | c1cnc2cc(N3CCOCC3)nc(O[C@H]3CC[C@@H](Nc4cncnc4)CC3)c2c1 [Compound 28, N-((1s,4s)-4-((7-morpholino-1,6-naphthyridin-5-yl)oxy)cyclohexyl)pyrimidin-5-amine]
11 | 1000 to 10000 nM | – | 1000 to 10000 nM | 100 to 1000 nM | Cn1cnc(N[C@H]2CC[C@@H](Oc3nc(N4CCOCC4)cc4ncccc34)CC2)n1 [Compound 31, 1-methyl-N-((1s,4s)-4-((7-morpholino-1,6-naphthyridin-5-yl)oxy)cyclohexyl)-1H-1,2,4-triazol-3-amine]
12 | 1000 to 10000 nM | 1000 to 10000 nM | 1000 to 10000 nM | 100 to 1000 nM | Cc1cnc(N[C@H]2CC[C@@H](Oc3nc(N4CCOCC4)cc4ncccc34)CC2)nc1 [Compound 32, 5-Methyl-N-((1s,4s)-4-((7-morpholino-1,6-naphthyridin-5-yl)oxy)cyclohexyl)pyrimidin-2-amine]
13 | 1000 to 10000 nM | 1000 to 10000 nM | 1000 to 10000 nM | 100 to 1000 nM | FC(F)(F)c1cnc(N[C@H]2CC[C@@H](Oc3nc(N4CCOCC4)cc4ncccc34)CC2)nc1 [Compound 34, N-((1s,4s)-4-((7-Morpholino-1,6-naphthyridin-5-yl)oxy)cyclohexyl)-5-(trifluoromethyl)pyrimidin-2-amine]
14 | 1000 to 10000 nM | 1000 to 10000 nM | 1000 to 10000 nM | < 100 nM | FC(F)Oc1cnc(N[C@H]2CC[C@@H](Oc3nc(N4CCOCC4)cc4ncccc34)CC2)nc1 [Compound 35, 5-(Difluoromethoxy)-N-((1s,4s)-4-((7-morpholino-1,6-naphthyridin-5-yl)oxy)cyclohexyl)pyrimidin-2-amine]
15 | 1000 to 10000 nM | – | 1000 to 10000 nM | < 100 nM | COc1ccc(N[C@H]2CC[C@@H](Oc3nc(N4CCOCC4)cc4ncccc34)CC2)nn1 [Compound 38, 6-methoxy-N-((1s,4s)-4-((7-morpholino-1,6-naphthyridin-5-yl)oxy)cyclohexyl)pyridazin-3-amine]
16 | 10 to 500 nM | – | 10 to 500 nM | < 100 nM | Nc1cnc(N[C@H]2CC[C@@H](Oc3nc(N4CCOCC4)cc4ncccc34)CC2)nc1 [Compound 43, N2-((1s,4s)-4-((7-morpholino-1,6-naphthyridin-5-yl)oxy)cyclohexyl)pyrimidine-2,5-diamine]
17 | 500 to 1000 nM | – | 500 to 1000 nM | < 100 nM | CS(=O)(=O)Nc1cnc(N[C@H]2CC[C@@H](Oc3nc(N4CCOCC4)cc4ncccc34)CC2)nc1 [Compound 44, N-(2-(((1s,4s)-4-((7-morpholino-1,6-naphthyridin-5-yl)oxy)cyclohexyl)amino)pyrimidin-5-yl)methanesulfonamide]
18 | 500 to 1000 nM | – | 500 to 1000 nM | < 100 nM | Oc1cnc(N[C@H]2CC[C@@H](Oc3nc(N4CCOCC4)cc4ncccc34)CC2)nc1 [Compound 45, 2-(((1s,4s)-4-((7-morpholino-1,6-naphthyridin-5-yl)oxy)cyclohexyl)amino)pyrimidin-5-ol]
19 | 500 to 1000 nM | – | 500 to 1000 nM | 1000 to 10000 nM | NS(=O)(=O)c1cnc(N[C@H]2CC[C@@H](Oc3nc(N4CCOCC4)cc4ncccc34)CC2)nc1 [Compound 46, 2-(((1s,4s)-4-((7-morpholino-1,6-naphthyridin-5-yl)oxy)cyclohexyl)amino)pyrimidine-5-sulfonamide]
20 | 500 to 1000 nM | – | 500 to 1000 nM | < 100 nM | Cc1ccnc(N[C@H]2CC[C@@H](Oc3nc(N4CCOCC4)cc4ncccc34)CC2)n1 [Compound 48, 4-methyl-N-((1s,4s)-4-((7-morpholino-1,6-naphthyridin-5-yl)oxy)cyclohexyl)pyrimidin-2-amine]
21 | 1000 to 10000 nM | – | 1000 to 10000 nM | 100 to 1000 nM | COc1ccnc(N[C@H]2CC[C@@H](Oc3nc(N4CCOCC4)cc4ncccc34)CC2)n1 [Compound 49, 4-methoxy-N-((1s,4s)-4-((7-morpholino-1,6-naphthyridin-5-yl)oxy)cyclohexyl)pyrimidin-2-amine]
